Laboratory results from patent US20250009737A1, “COMPOUNDS AND METHODS FOR THE TARGETED DEGRADATION OF ANDROGEN RECEPTOR” (Arvinas Operations, Inc., priority 2023, published 2025).
Read-outs that look alike come from different tables or passages of the source.

Tests used:
Assay type in all cases: in vitro ADME
[1] = test system: major recombinant CYPs; assay: Incubation with recombinant human CYP enzymes; conditions: up to 25 min
Description: Metabolite profiling was conducted in incubations of Compound A (2 and 10 μM) with HLM (up to 60 min), human hepatocyte suspension (up to 240 min) and human plasma (up to 360 min). In addition, Compound A (2 μM) was incubated with recombinant human CYP enzymes CYP1A2, CYP2A6, CYP2B6, CYP2C8, CYP2C9, CYP2C19, CYP2D6, CYP2E1, CYP3A4 and CYP3A5.
The DDI potential of Compound A as a victim via CYP mediated pathways was examined in HLM, human hepatocyte suspensions, and human recombinant CYP enzymes.

[2] = target: T1, BCRP (Homo sapiens, UniProt Q9UNQ0); assay: BCRP inhibition in inside-out membrane vesicles from HEK293; parameters: expressed in transfected cells; host or cells: HEK293 (inside-out membrane vesicles); conditions: substrate Rosuvastatin (1 μM)
T1 sequence (Q9UNQ0 1-655): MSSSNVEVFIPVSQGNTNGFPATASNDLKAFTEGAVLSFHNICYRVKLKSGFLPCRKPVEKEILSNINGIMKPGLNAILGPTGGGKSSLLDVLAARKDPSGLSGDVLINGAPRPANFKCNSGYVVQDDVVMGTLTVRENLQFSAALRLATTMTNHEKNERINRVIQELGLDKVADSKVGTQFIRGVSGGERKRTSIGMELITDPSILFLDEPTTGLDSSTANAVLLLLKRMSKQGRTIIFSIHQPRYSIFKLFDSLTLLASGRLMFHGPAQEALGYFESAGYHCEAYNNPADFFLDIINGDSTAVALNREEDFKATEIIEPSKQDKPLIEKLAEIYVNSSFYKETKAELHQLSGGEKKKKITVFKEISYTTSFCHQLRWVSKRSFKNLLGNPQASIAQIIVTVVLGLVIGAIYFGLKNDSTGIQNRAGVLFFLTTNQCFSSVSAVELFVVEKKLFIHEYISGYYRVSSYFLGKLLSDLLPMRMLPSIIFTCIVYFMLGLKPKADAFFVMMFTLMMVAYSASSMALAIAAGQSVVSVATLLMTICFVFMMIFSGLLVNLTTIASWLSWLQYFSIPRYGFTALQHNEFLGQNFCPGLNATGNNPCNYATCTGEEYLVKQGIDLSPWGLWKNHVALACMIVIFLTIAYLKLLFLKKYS
Description: (§1) In addition, the inhibition potential against efflux transporters (P-glycoprotein (Pgp) and breast cancer resistance protein (BCRP)) and uptake transporters (MATE1, MATE2-K, OATP1B1, OATP1B3, OAT1, OAT3, and OCT2) was assessed using single transporter over-expressed cell monolayers (MDCK II or HEK293) or inside-out vesicles.
(§2) The potential of Compound A to inhibit Pgp or BCRP was tested for bidirectional transport of the probe substrates in Pgp or BCRP-expressed MDCKII and control monolayers at Compound A concentrations of 0.07-5 μM. Pgp and BCR inhibition were tested in inside-out membrane vesicles prepared from HEK293 overexpressing human Pgp and BCR at concentrations of 0.01-9 μM Compound A in the presence of 4 mM MgATP or MgAMP.

[3] = test system: CYP2C9 mRNA; assay: CYP2C9 mRNA induction in cryopreserved human hepatocytes; conditions: 0.03-30 μM; for CYP2C9 mRNA Fold induction: human hepatocytes, 48 hours
[4] = target: T2, CYP2C9 (Homo sapiens, UniProt P11712); assay: Direct and time-dependent CYP2C9 inhibition in pooled human liver microsomes; conditions: pooled HLM, substrate Diclofenac 5 μM
T2 construct: evaluated in pooled human liver microsomes (HLM); from tissue; host or cells: pooled human liver microsomes
T2 sequence (P11712 whole entry): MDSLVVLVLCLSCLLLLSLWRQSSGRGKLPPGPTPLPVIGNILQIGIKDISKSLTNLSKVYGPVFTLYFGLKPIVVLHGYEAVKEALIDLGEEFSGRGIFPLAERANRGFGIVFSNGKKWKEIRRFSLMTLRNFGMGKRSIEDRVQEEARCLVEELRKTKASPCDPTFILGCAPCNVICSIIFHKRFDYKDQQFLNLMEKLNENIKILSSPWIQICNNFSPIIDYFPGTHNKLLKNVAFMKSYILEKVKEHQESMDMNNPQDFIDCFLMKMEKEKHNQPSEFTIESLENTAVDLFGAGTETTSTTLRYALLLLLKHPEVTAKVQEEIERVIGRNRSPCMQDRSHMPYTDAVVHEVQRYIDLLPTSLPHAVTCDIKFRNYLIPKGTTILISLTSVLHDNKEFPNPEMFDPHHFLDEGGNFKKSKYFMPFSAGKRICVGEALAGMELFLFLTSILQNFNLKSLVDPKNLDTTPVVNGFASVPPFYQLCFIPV
Description: (§3) The induction potential of Compound A on CYP enzymes was assessed in cryopreserved human hepatocytes from three donors. Following treatment for with Compound A at concentrations of 0.03-30 μM for 48 hours, mRNA levels for CYP1A2, 2B6, 2C8, 2C9, 2C19, and 3A4 were determined by semiquantitative real-time polymerase chain reaction (PCR). Test article concentrations during 24-hour incubation were determined. The potential of Compound A to cause direct and time-dependent inhibition (TDI) of the activities of CYP1A2, 2B6, 2C8, 2C9, 2C19, 2D6, and 3A4 was evaluated in pooled human liver microsomes (HLM) at 0.2-15 μM. Probe substrate concentrations around Km were used for direction inhibition and initial TDI assays. For TDI assay, Compound A was pre-incubated with pooled HLM with and without NADPH for 30 minutes prior to incubation with a single concentration of probe substrate.

[5] = test system: Caco-2 cell monolayers; assay: Bidirectional permeability in Caco-2 cell monolayers; conditions: 1% of BSA, 120 min incubation
Description: The potential of Compound A to act as an efflux transporter Pgp and BCRP as well as uptake transporter OATP1B1 and 1B3 were assessed in Caco-2 and single transporter over-expressed HEK29 cells, respectively.
The potential of Compound A to act as a substrate for Pgp and BCRP was examined in Caco-2 cells at the concentrations of 0.075, 0.75, 3.75 and 7.5 μM containing 1% of BSA. After 120 min incubation, the bidirectional permeability of Compound A was determined by LC-MS/MS. The involvement of Compound A as a substrate of OATP1B1 and OATP1B3 was assessed in the uptake transporter substrate assays at 4 concentrations (0.1, 0.5, 1 and 5 μM). Compound A in cell lysates was determined by LC-MS/MS.

[6] = target: T3, CYP2C19 (Homo sapiens, UniProt P33261); assay: Direct and time-dependent CYP2C19 inhibition in pooled human liver microsomes; conditions: pooled HLM, substrate S-Mephenytoin 20 μM
T3 construct: evaluated in pooled human liver microsomes (HLM); from tissue; host or cells: pooled human liver microsomes
T3 sequence (P33261 whole entry): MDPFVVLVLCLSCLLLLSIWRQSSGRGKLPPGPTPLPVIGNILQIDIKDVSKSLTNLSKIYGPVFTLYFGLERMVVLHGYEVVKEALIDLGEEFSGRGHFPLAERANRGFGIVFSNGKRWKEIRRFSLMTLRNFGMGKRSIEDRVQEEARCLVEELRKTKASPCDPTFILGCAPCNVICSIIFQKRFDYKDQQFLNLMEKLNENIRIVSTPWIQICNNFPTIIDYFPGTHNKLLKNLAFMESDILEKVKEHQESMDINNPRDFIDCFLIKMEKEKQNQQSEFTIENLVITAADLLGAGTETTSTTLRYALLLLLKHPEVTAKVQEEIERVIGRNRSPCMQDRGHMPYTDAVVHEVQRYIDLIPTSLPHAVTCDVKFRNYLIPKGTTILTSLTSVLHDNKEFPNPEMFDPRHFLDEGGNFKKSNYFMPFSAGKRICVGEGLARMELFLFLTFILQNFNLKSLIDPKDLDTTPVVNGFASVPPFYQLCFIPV
Description: as §3

[7] = target: T4, CYP1A2 (Homo sapiens, UniProt P05177); assay: Direct and time-dependent CYP1A2 inhibition in pooled human liver microsomes; conditions: pooled HLM, substrate Phenacetin 50 μM
T4 construct: evaluated in pooled human liver microsomes (HLM); from tissue; host or cells: pooled human liver microsomes
T4 sequence (P05177 whole entry): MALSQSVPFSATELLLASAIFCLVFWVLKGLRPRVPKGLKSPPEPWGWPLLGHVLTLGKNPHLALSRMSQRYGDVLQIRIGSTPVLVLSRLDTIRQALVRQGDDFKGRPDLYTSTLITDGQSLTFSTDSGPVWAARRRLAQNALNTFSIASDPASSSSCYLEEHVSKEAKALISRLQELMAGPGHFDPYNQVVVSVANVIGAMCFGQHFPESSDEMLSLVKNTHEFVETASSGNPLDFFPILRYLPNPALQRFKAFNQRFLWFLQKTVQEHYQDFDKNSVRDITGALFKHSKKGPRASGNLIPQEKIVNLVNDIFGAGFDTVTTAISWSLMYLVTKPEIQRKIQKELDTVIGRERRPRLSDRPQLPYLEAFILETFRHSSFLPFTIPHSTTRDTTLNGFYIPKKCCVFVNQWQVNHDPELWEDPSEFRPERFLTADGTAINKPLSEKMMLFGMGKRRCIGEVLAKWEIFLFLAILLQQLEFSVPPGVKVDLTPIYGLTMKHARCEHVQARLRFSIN
Description: as §3

[8] = target: T5, CYP2C8 (Homo sapiens, UniProt P10632); assay: Direct and time-dependent CYP2C8 inhibition in pooled human liver microsomes; conditions: pooled HLM, substrate Amodiaquine 2 μM
T5 construct: evaluated in pooled human liver microsomes (HLM); from tissue; host or cells: pooled human liver microsomes
T5 sequence (P10632 whole entry): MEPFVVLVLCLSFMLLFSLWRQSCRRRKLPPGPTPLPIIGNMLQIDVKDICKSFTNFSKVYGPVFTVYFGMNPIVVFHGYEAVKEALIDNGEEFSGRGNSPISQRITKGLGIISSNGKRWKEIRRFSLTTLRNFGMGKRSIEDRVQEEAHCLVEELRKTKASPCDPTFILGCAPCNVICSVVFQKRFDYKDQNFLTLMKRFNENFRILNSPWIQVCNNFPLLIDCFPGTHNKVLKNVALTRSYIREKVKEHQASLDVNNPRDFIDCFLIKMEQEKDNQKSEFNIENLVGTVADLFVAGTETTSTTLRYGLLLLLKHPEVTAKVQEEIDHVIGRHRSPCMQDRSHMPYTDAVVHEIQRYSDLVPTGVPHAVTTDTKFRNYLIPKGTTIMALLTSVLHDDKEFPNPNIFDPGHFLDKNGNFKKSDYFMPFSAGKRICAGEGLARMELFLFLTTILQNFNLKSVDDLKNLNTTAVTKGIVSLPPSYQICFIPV
Description: as §3

[9] = target: T6, OCT2 (Homo sapiens, UniProt O15244); assay: OCT2 uptake transporter inhibition in MDCKII or HEK293 cells; conditions: substrate Metformin (10 μM)
T6 construct: expressed in transfected cells; host or cells: MDCKII or HEK293
T6 sequence (O15244 whole entry): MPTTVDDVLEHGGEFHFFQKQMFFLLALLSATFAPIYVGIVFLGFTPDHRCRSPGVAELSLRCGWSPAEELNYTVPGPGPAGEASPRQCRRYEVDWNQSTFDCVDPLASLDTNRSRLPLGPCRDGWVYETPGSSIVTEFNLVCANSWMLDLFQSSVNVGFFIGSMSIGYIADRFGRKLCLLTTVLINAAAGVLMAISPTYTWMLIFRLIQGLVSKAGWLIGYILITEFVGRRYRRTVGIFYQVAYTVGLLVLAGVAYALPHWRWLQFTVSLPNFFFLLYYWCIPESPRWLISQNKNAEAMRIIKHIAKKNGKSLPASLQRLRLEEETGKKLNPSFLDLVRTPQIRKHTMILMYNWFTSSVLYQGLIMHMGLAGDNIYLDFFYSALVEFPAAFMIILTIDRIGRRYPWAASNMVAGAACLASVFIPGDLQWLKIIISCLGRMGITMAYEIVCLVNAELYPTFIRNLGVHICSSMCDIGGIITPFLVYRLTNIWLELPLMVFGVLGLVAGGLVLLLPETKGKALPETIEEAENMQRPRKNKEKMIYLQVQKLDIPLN
Description: as §1, §2

[10] = read-out: IC50, 30 min Pre-incubation
[11] = read-out: IC50, No Pre-incubation

Stability in major recombinant CYPs [1]: relatively stable
inhibition at 1 µM ([2]; human, probe Rosuvastatin (1 μM), read-out: Maximal % Inhibition): 95%
IC50 [2]: 0.21 µM
CYP2C9 mRNA Fold induction ([3]; Donor 1): <2 Fold
CYP2C9 mRNA Fold induction ([3]; Donor 2): <2 Fold
CYP2C9 mRNA Fold induction ([3]; Donor 3): <2 Fold
Induction of CYP2C9 mRNA ([3]; all three donors of human hepatocytes): did not induce
IC50 [4, 10]: > 15 µM
IC50 [4, 11]: > 15 µM
Permeability in Caco-2 cell monolayers [5]: low permeability
IC50 [6, 10]: > 15 µM
IC50 [6, 11]: > 15 µM
IC50 [7, 10]: > 15 µM
IC50 [7, 11]: > 15 µM
IC50 [8, 10]: > 15 µM
IC50 [8, 11]: > 15 µM
IC50 [9]: > 3.75 µM
Compound: COc1cc(O[C@H]2C(C)(C)[C@H](NC(=O)c3ccc(N4CCC(CN5CCN(c6ccc(C(=O)N[C@H]7CCC(=O)NC7=O)c(F)c6)CC5)CC4)cc3)C2(C)C)ccc1C#N [Compound A, 4-(4-((1-(4-(((1R,3R)-3-(4-cyano-3-methoxyphenoxy)-2,2,4,4-tetramethylcyclobutyl)carbamoyl)phenyl)piperidin-4-yl)methyl)piperazin-1-yl)-N—((S)-2,6-dioxopiperidin-3-yl)-2-fluorobenzamide]
